These results are taken from patent US10981911B2, “Imidazopyrrolopyridine as inhibitors of the JAK family of kinases” (Janssen Pharmaceutica NV, priority 2016, dated 2021).

Type in all cases: biochemical
Assay [1] concerns the target JAK1-JH1JH2 (Homo sapiens (Human), UniProt P23458). As to the kind of experiment: Enzymatic inhibition assay (RapidFire HTMS), JAK1. The note with it: 12.5 μM ATP, 200 μM substrate; read-out: JAK1-JH2JH1 IC50. From the text:
(§1) LC/MS grade Water and Acetonitrile (ACN), were purchased from HoneyWell, Burdick & Jackson (Muskegon, Mich., USA). Dimethylsulfoxide 99.8% (DMSO) and Trifluoroacetic Acid 99.5% (TFA) were purchased from EMD Chemical (Gibbstown, N.J., USA). Adenosine triphosphate (ATP), 4-Morpholinepropanesulfonic acid (MOPS), Magnesium chloride (MgCl2), ethylenediaminetetraacetic acid (EDTA), dithiothreitol (DTT), formic acid >95% (FA) and Tween-20 were purchased from Sigma (St Louis, Mo., USA). 384-well polypropylene plates, Cat #781280 were purchased from Greiner (Monroe, N.C.), RapidFire™ cartridge A C4 Column (Agilent Technologies, Santa Clara, Calif.).
(§2) The HTMS experiments were performed in positive ionization mode on a RapidFire 300 instrument (Agilent Technologies, Santa Clara, Calif.), coupled with an ABSiex QTrap 4000 system with an Electrospray Ionization source (RF-MS) (Concord, ON, Canada). […] The entire system was operated using the RapidFire software interfaced with Analyst software for the mass spectrometer.
(§3) 11-point dosing series were made for each compound by serially diluting 1:3 or 1:4 in DMSO, with point 12 being a DMSO control. From the serial dilution plates, sample was transferred to a 384 wells assay plate (#781280, Greiner, Monroe, N.C.) using Labcyte Echo (Sunnyvale, Calif.), or Biosero ATS (San Diego, Calif.). The compounds were tested in duplicate. Column 12 was used for positive controls, and column 24 contained negative controls with no enzyme added. A compound from our internal collection, with inhibitory activity for JAK isoforms, was used as a reference compound. The final concentration of DMSO was ≤0.25% in a 20 μL reaction. […] The Tyk2 enzyme was pre-incubated with 2 mM ATP for 30 min prior to the reaction initiation. Immediately after the addition of the enzyme to the reaction mixture, the plate was centrifuged at 1000 rpm for 1 minute and incubated at 25° C. for 45 minutes for JAK 3 and 90 minutes for JAK1, JAK2 and Tyk2. The reaction was quenched by the addition of 20 μL of 0.5% TFA containing 0.15 μM of internal standard peptide using Multidrop Combi reagent dispenser (Thermo Scientific, Waltham, Mass.). […] After the quench, the assay plate was centrifuged at 3000 rpm for 3 minutes and sealed with pierceable aluminum foil (Cat #06644-001, Agilent) using a PlateLoc (Agilent Technologies, Santa Clara, Calif.). The plates then were transferred on to the RapidFire for the MS analysis. Compound inhibition was assessed by a decrease of the phosphorylated product levels in sample wells compared to the non-inhibited enzyme reaction.
(§4) The sample analysis on the RapidFire was performed using a mobile phase A consisting of Water/TFA/FA (100:0.01:0.1, v/v/v), a mobile phase B consisting of ACN/Water/TFA/FA (80:20:0.01:0.1, v/v/v). […] The samples were aspirated directly from the 384 assay plate and delivered onto RF-MS microscale solid-phase C4 extraction cartridge (Type A). The undesired component such as salt, cofactor, detergent and large protein were washed out and the retained analytes (substrate, product and IS) were coeluted directly onto the ABSiex Qtrap 4000 system.

Assay [2] deals with Tyk2-JH1JH2 (Homo sapiens (Human), UniProt P29597, C1142A/C936A). As to the kind of experiment: Enzymatic inhibition assay (RapidFire HTMS), Tyk2. As to conditions: 50 μM ATP, 200 μM substrate.
Chain of Tyk2-JH1JH2 (P29597 580-1182 C936A/C1142A): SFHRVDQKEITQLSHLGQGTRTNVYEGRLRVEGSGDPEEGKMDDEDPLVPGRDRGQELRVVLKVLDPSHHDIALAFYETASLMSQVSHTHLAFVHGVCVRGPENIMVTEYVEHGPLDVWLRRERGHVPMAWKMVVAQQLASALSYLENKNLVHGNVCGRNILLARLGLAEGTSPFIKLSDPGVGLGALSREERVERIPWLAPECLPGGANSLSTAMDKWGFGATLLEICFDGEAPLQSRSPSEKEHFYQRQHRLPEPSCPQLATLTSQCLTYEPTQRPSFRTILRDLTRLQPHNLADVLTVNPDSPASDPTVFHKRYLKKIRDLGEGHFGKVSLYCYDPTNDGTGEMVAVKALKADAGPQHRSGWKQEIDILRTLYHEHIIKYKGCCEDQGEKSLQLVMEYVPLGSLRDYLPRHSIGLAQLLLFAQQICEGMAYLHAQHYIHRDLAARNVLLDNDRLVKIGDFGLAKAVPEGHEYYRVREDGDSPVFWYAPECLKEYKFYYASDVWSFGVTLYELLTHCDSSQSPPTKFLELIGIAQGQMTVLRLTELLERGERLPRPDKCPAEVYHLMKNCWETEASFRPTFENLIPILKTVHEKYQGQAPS
Excerpt: as §1, §2, §3, §4

The target of assay [3] is JAK3-JH1JH2 (Homo sapiens (Human), UniProt P52333). As to the kind of experiment: Enzymatic inhibition assay (RapidFire HTMS), JAK3. As to conditions: 150 μM ATP, 40 μM substrate.
Chain of JAK3-JH1JH2 (P52333 512-1124): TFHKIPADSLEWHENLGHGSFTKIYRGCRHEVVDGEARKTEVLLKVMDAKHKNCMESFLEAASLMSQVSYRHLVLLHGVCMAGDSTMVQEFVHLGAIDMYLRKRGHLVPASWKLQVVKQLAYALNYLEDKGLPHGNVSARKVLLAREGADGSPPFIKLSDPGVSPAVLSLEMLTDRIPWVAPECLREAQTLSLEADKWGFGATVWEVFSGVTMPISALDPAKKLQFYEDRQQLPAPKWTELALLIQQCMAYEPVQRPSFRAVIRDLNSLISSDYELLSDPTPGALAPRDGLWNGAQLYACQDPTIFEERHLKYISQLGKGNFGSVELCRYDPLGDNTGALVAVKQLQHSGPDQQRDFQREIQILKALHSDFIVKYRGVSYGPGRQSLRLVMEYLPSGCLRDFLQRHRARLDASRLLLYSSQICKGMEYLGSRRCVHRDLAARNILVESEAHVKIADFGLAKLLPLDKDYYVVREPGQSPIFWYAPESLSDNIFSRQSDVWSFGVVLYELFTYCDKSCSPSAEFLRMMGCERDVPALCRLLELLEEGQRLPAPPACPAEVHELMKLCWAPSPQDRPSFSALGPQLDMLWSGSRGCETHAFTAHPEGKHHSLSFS
Excerpt: as §1, §2
as §3, with “compound.” for “compound. The final concentration of DMSO was ≤0.25% in a 20 μL reaction.”
as §4

Assay [4] concerns the target JAK2-JH1JH2 (Homo sapiens (Human), UniProt O60674). Description: Enzymatic inhibition assay (RapidFire HTMS), JAK2. As to conditions: 30 μM ATP, 40 μM substrate.
Excerpt: as §1, §2, §3, §4

The structures appear in SMILES notation.

Chain of JAK1-JH1JH2 (P23458 574-1154): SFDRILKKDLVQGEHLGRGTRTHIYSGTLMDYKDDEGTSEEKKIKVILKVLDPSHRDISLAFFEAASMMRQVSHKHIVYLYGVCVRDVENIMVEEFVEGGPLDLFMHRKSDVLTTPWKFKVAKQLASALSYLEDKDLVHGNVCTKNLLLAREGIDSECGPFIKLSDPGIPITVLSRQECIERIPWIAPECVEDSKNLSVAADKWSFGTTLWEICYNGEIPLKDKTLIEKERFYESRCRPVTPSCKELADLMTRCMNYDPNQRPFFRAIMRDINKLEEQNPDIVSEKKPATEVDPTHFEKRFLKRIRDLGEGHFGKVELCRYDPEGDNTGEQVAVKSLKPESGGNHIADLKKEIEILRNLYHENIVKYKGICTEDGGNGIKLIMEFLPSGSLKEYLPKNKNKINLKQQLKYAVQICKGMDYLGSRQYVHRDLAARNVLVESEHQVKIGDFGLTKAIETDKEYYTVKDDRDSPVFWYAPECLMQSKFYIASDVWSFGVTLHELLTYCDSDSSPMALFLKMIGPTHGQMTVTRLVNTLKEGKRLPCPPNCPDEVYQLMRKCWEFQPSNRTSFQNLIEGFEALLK
Chain of JAK2-JH1JH2 (O60674 532-1132): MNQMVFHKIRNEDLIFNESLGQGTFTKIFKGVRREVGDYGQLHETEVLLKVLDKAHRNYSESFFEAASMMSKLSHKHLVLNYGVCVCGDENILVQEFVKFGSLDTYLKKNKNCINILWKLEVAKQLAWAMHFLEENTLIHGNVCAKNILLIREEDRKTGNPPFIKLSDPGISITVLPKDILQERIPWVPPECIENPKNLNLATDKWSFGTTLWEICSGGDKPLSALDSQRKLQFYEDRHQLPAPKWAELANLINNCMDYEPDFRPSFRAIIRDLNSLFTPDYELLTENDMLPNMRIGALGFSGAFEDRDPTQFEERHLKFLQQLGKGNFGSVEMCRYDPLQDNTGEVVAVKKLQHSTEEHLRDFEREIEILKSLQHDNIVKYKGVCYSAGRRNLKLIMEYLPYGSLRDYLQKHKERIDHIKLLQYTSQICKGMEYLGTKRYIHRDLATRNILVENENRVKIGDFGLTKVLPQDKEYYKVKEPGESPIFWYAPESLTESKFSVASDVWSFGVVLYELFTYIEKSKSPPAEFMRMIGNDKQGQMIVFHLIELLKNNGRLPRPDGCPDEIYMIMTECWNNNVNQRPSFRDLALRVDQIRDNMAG

Take `N#CC[C@H]1CC[C@H](n2c(CC(=O)N3CC(O)C3)nc3cnc4[nH]ccc4c32)CC1` [Ex. 18, 2-((1r,4r)-4-(2-(2-(3-Hydroxyazetidin-1-yl)-2-oxoethyl)imidazo[4,5-d]pyrrolo[2,3-b]pyridin-1(6H)-yl)cyclohexyl)acetonitrile]: the IC50 came to 0.1 nM in assay [1], 6.4 nM in assay [2], 540 nM in assay [3] and 35.3 nM in assay [4].
On the same counts, the results for `N#CC[C@H]1CC[C@H](NC(=O)Cc2nc3cnc4[nH]ccc4c3n2[C@H]2CC[C@H](CC#N)CC2)CC1` [Ex. 19, N-((1r,4r)-4-(Cyanomethyl)cyclohexyl)-2-(1-((1r,4r)-4-(cyanomethyl)cyclohexyl)-1,6-dihydroimidazo[4,5-d]pyrrolo[2,3-b]pyridin-2-yl)acetamide] are 0.1 nM, 4.4 nM, 31.8 nM and 2.4 nM.
For `N#CC[C@H]1CC[C@H](n2c(CC(=O)Nc3ccccc3)nc3cnc4[nH]ccc4c32)CC1` [Ex. 20, 2-(1-((1r,4r)-4-(Cyanomethyl)cyclohexyl)-1,6-dihydroimidazo[4,5-d]pyrrolo[2,3-b]pyridin-2-yl)-N-phenylacetamide], the IC50 in assay [1] stood at 0.1 nM; in assay [2], 1.9 nM; in assay [3], 20.5 nM; in assay [4] it was 1.2 nM.
Consider `N#CC[C@H]1CC[C@H](n2c(CC(=O)NC34CCC(C#N)(CC3)C4)nc3cnc4[nH]ccc4c32)CC1` [Ex. 23, N-(4-Cyanobicyclo[2.2.1]heptan-1-yl)-2-(1-((1r,4r)-4-(cyanomethyl)cyclohexyl)-1,6-dihydroimidazo[4,5-d]pyrrolo[2,3-b]pyridin-2-yl)acetamide], for which the IC50 in assay [1] is 0.1 nM; in assay [2] it was 3.5 nM; in assay [3], 38.1 nM; in assay [4], 1.4 nM.
On the same counts, the results for `N#CC[C@H]1CC[C@H](n2c(CC(=O)NCC3(O)COC3)nc3cnc4[nH]ccc4c32)CC1` [Ex. 24, 2-(1-((1r,4r)-4-(Cyanomethyl)cyclohexyl)-1,6-dihydroimidazo[4,5-d]pyrrolo[2,3-b]pyridin-2-yl)-N-((3-hydroxyoxetan-3-yl)methyl)acetamide] are 0.1 nM, 3.3 nM, 57.5 nM and 4.9 nM.
`N#CC[C@H]1CC[C@H](n2c(CC(=O)N3CCC(N4CCOCC4)CC3)nc3cnc4[nH]ccc4c32)CC1` [Ex. 26, 2-((1r,4r)-4-(2-(2-(4-Morpholinopiperidin-1-yl)-2-oxoethyl)imidazo[4,5-d]pyrrolo[2,3-b]pyridin-1(6H)-yl)cyclohexyl)acetonitrile]: the IC50 was 0.1 nM in assay [1], 2.7 nM in assay [2], 106 nM in assay [3] and 6.1 nM in assay [4].
Turning to `N#CC[C@H]1CC[C@H](n2c(CC(=O)N[C@H]3CC[C@H](CO)CC3)nc3cnc4[nH]ccc4c32)CC1` [Ex. 27, 2-(1-((1r,4r)-4-(Cyanomethyl)cyclohexyl)-1,6-dihydroimidazo[4,5-d]pyrrolo[2,3-b]pyridin-2-yl)-N-((1r,4r)-4-(hydroxymethyl)cyclohexyl)acetamide], the IC50 came out at 0.1 nM in assay [1], 7.2 nM in assay [2], 36.9 nM in assay [3] and 2.9 nM in assay [4].
On the same counts, the results for `N#CC[C@H]1CC[C@H](n2c(CC(=O)NC3CCCCC3)nc3cnc4[nH]ccc4c32)CC1` [Ex. 28, 2-(1-((1r,4r)-4-(Cyanomethyl)cyclohexyl)-1,6-dihydroimidazo[4,5-d]pyrrolo[2,3-b]pyridin-2-yl)-N-cyclohexylacetamide] are 0.1 nM, 3.5 nM, 32.7 nM and 2.4 nM.
Consider `N#CC[C@H]1CC[C@H](n2c(CC(=O)NCCO)nc3cnc4[nH]ccc4c32)CC1` [Ex. 29, 2-(1-((1r,4r)-4-(Cyanomethyl)cyclohexyl)-1,6-dihydroimidazo[4,5-d]pyrrolo[2,3-b]pyridin-2-yl)-N-(2-hydroxyethyl)acetamide], for which the IC50 came to 0.1 nM in assay [1], 3.8 nM in assay [2], 67.2 nM in assay [3] and 7.3 nM in assay [4].
On the same counts, the results for `N#CC[C@H]1CC[C@H](n2c(CNC(=N)c3ccccc3)nc3cnc4[nH]ccc4c32)CC1` [Ex. 30, N-((1-((1r,4r)-4-(Cyanomethyl)cyclohexyl)-1,6-dihydroimidazo[4,5-d]pyrrolo[2,3-b]pyridin-2-yl)methyl)benzimidamide] are 0.2 nM, 1.6 nM, 996 nM and 6.6 nM.
On the same counts, the results for `N#CC[C@H]1CC[C@H](n2c(-c3n[nH]cc3Cl)nc3cnc4[nH]ccc4c32)CC1` [Ex. 31, 2-((1r,4r)-4-(2-(4-Chloro-1H-pyrazol-3-yl)imidazo[4,5-d]pyrrolo[2,3-b]pyridin-1(6H)-yl)cyclohexyl)acetonitrile] are 0.2 nM, 3.7 nM, 121 nM and 5.5 nM.
On the same counts, the results for `N#CC[C@H]1CC[C@H](n2c(CC(=O)NC34CC5CC(CC(C5)C3)C4)nc3cnc4[nH]ccc4c32)CC1` [Ex. 32, N-((3R,5R)-Adamantan-1-yl)-2-(1-((1r,4r)-4-(cyanomethyl)cyclohexyl)-1,6-dihydroimidazo[4,5-d]pyrrolo[2,3-b]pyridin-2-yl)acetamide] are 0.2 nM, 2.8 nM, 59.3 nM and 1.3 nM.
In the case of `N#CC[C@H]1CC[C@H](n2c(CC(=O)N[C@H]3CC[C@H](O)CC3)nc3cnc4[nH]ccc4c32)CC1` [Ex. 33, 2-(1-((1r,4r)-4-(Cyanomethyl)cyclohexyl)-1,6-dihydroimidazo[4,5-d]pyrrolo[2,3-b]pyridin-2-yl)-N-((1r,4r)-4-hydroxycyclohexyl)acetamide], the IC50 in assay [1] was 0.2 nM; in assay [2], 3.8 nM; in assay [3], 38 nM; in assay [4] it was 2.3 nM.
For the molecule `N#CC[C@H]1CC[C@H](n2c(CC(=O)NCc3cnccn3)nc3cnc4[nH]ccc4c32)CC1` [Ex. 35, 2-(1-((1r,4r)-4-(Cyanomethyl)cyclohexyl)-1,6-dihydroimidazo[4,5-d]pyrrolo[2,3-b]pyridin-2-yl)-N-(pyrazin-2-ylmethyl)acetamide], the IC50 in assay [1] was found to be 0.2 nM; in assay [2] it was 4.5 nM; in assay [3], 107 nM; in assay [4], 3.6 nM.
